Laboratory results: the supplement of paper PMC10307832

What was measured:
Experiment in all cases: relative viability (nuclei count vs DMSO), 5 days (fraction); higher = more cells survive
Masitinib + Navitoclax = compound: Cc1ccc(NC(=O)c2ccc(CN3CCN(C)CC3)cc2)cc1Nc1nc(-c2cccnc2)cs1 [Masitinib] + CC1(C)CCC(c2ccc(Cl)cc2)=C(CN2CCN(c3ccc(C(=O)NS(=O)(=O)c4ccc(N[C@H](CCN5CCOCC5)CSc5ccccc5)c(S(=O)(=O)C(F)(F)F)c4)cc3)CC2)C1 [Navitoclax] (partner 0.5 µM)
In short: (§1)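 One day after seeding in 1536-well plates, lung cancer cell lines were dosed by pin tool. Dosing was either single-drug or a fixed anchor-drug dose plus five library-drug doses (not always all listed) in √10 steps. After 5 days, nuclei were stained in one fix-and-stain step and counted on 4× images, and relative viability is the nuclei count of treated wells over that of vehicle wells, given as the median of duplicate plates.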

Masitinib = compound: Cc1ccc(NC(=O)c2ccc(CN3CCN(C)CC3)cc2)cc1Nc1nc(-c2cccnc2)cs1 [Masitinib]
In short: (§2)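 Lung cancer cell lines in 1536-well plates were exposed by pinning to five library-drug doses (not always all listed) √10 apart, following an overnight hold at 37 °C. MetaXpress counted Hoechst-stained nuclei from 4× images taken after 5 days without medium change. Viability is the median ratio of treated-well to vehicle-well nuclei across plates. Plates required control CV below 25% and at least one doubling.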

[1] = compound: CC1=CC(=CC=C1)NC2=NC(=CS2)C3=CC=NC=C3
In short: as §2

[2] = compound: CC1=CC(=CC=C1)NC2=NC(=CS2)C3=CC=NC=C3 + CC(=O)Nc1cccc(-n2c(=O)n(C3CC3)c(=O)c3c(Nc4ccc(I)cc4F)n(C)c(=O)c(C)c32)c1 [Trametinib] (partner 0.02 µM)
In short: as §1

Cell Line	relative viability (Masitinib + Navitoclax; first compound 0.01 µM)	relative viability (Masitinib + Navitoclax; first compound 0.03162 µM)	relative viability (Masitinib + Navitoclax; first compound 0.1 µM)	relative viability (Masitinib + Navitoclax; first compound 0.3162 µM)	relative viability (Masitinib + Navitoclax; first compound 1 µM)	relative viability (Masitinib; 0.01 µM)	relative viability (Masitinib; 0.03162 µM)	relative viability (Masitinib; 0.1 µM)	relative viability (Masitinib; 0.3162 µM)	relative viability (Masitinib; 1 µM)	relative viability ([1]; 0.08 µM)	relative viability ([1]; 0.253 µM)	relative viability ([1]; 0.8 µM)	relative viability ([1]; 2.53 µM)	relative viability ([1]; 8 µM)	relative viability ([2]; first compound 0.08 µM)	relative viability ([2]; first compound 0.253 µM)	relative viability ([2]; first compound 0.8 µM)	relative viability ([2]; first compound 2.53 µM)	relative viability ([2]; first compound 8 µM)
Calu-6	0.836	0.872	0.89	0.821	0.904	0.98	1.04	1.06	0.977	0.985	0.894	0.936	0.873	0.943	0.87	–	–	–	–	–
SW 1573	0.975	1.05	1.09	1.19	0.972	1.08	0.945	1.1	1.02	0.974	0.989	0.945	1.08	0.962	0.909	0.596	0.585	0.741	0.696	0.48
RERF-LC-KJ	0.986	–	1.07	0.873	0.541	0.922	0.943	1.03	0.963	0.829	0.945	0.91	0.834	0.751	0.714	0.953	0.734	0.735	0.703	0.645
EMC-BAC-2	1.08	0.962	1.16	1.37	1.45	0.78	0.784	0.893	0.937	0.927	0.834	0.712	1.01	0.838	0.885	0.798	–	1.01	0.879	0.823
LCLC-103H	–	–	–	–	–	0.741	1.01	0.757	0.816	0.899	0.896	0.886	0.913	0.968	0.712	0.629	0.593	0.586	0.579	0.658
NCI-H1299	1.08	1.03	1.04	1.04	1.03	1.06	1.01	1.05	1.04	0.984	0.981	0.997	0.968	1.02	0.937	–	–	–	–	–
ABC-1	–	–	–	–	–	0.857	0.902	1.08	0.853	0.93	0.795	0.786	1.08	0.786	0.41	–	–	–	–	–
NCI-H661	–	–	–	–	–	0.9	0.977	0.986	0.967	0.947	0.907	0.944	0.913	0.914	0.99	0.478	0.583	0.579	0.54	0.48
NCI-H1563	–	–	–	–	–	0.9	0.975	0.983	0.931	0.937	0.917	1.04	0.954	0.983	0.838	–	–	–	–	–
NCI-H1703	0.748	0.898	0.464	0.29	0.243	0.866	0.821	0.526	0.32	0.261	0.831	0.977	0.907	0.986	0.946	–	–	–	–	–
NCI-H1648	–	–	–	–	–	0.907	0.599	1.01	0.776	0.896	0.659	0.814	0.797	0.87	0.758	0.353	0.569	0.444	0.471	0.588
A549	1.18	1.19	1.41	1.19	1.23	0.906	0.953	1.09	1.03	0.856	0.888	0.871	0.943	0.929	0.921	–	–	–	–	–
NCI-H522	–	–	–	–	–	1.06	0.815	0.866	1.07	0.974	0.894	0.886	0.931	0.925	1.15	0.79	0.66	0.832	0.789	0.878
NCI-H358	–	–	–	–	–	0.963	0.967	0.961	0.892	0.893	0.997	0.899	0.868	1.01	0.966	0.121	0.141	0.133	0.142	0.136
NCI-H1623	–	–	–	–	–	0.982	0.883	0.894	0.889	0.905	0.948	0.886	0.894	0.81	0.84	–	–	–	–	–
SW 900	–	–	–	–	–	0.854	0.881	0.778	0.629	0.7	0.708	0.774	0.808	0.487	0.514	0.518	0.539	0.913	0.508	0.667
IA-LM	0.733	0.699	1.02	0.689	1.01	0.885	0.901	1.01	0.977	0.982	0.856	0.772	0.9	0.76	0.677	–	–	–	–	–
EBC-1	0.363	0.397	0.41	0.385	0.494	0.988	0.946	1.2	0.984	0.834	0.788	0.882	0.865	0.823	0.685	–	–	–	–	–
